What is called MIC is the least concentration at which growth counts as inhibited.

The results in this text go back to patent US10017481B2, “Conformationally constrained, fully synthetic macrocyclic compounds” (POLYPHOR AG, priority 2012, dated 2018).

Values after ≈ are worked out from the molar mass of the structure shown. Where two headings read alike, the source gives them in different places.

Series [1] deals with S. aureus ATCC 29213, ATCC 25923, DSM 11729, DSM 46320, S. aureus 39. As to the kind of experiment: Antimicrobial assay, broth microdilution MIC, S. aureus strains. It is filed as cell-based. The conditions noted are these: Staphylococcus aureus. The method, then: (§1) The antimicrobial activities of the compounds were determined in 96-well plates (Greiner, polystyrene) by the standard NCCLS broth microdilution method (National Committee for Clinical Laboratory Standards 1993. Methods for dilution antimicrobial susceptibility tests for bacteria that grow aerobically, 3rd ed. Approved standard M7-A6. National Committee for Clinical laboratory standards, Wayne, Pa.) with slight modifications. Inocula of the microorganisms were diluted into Mueller-Hinton II (MH, cation adjusted) broth+0.002% P-80 and compared with a 0.5 McFarland standard to give appr. 10^6 colony forming units (CFU)/mL. Aliquots (50 μl) of inoculate were added to 50 μl of MH broth+0.002% P-80 containing the compounds in serial two-fold dilutions. The following microorganisms were used to determine antibiotic selectivity of the compounds: S. pneumoniae DSM 20566 11A11, 3313A6, 704CG4B21, 82BERG72; S. aureus ATCC 29213, ATCC 25923, DSM 11729, DSM 46320, S. aureus 39. Antimicrobial activities of the compounds were expressed as the minimal inhibitory concentration (MIC) in μg/mL at which no visible growth was observed after 18-20 hours of incubation at 36° C.
In general terms: Dilution methods test growth across graded concentrations, often in twofold steps.

Series [2] concerns S. pneumoniae DSM 20566 11A11, 3313A6, 704CG4B21, 82BERG72. The experiment in a line: Antimicrobial assay, broth microdilution MIC, S. pneumoniae strains. The conditions noted are these: Streptococcus pneumoniae, DSM20566. It is filed as cell-based. The method, then:
as §1

Series [3] in a line: Plasma stability assay, CD-1 mouse plasma. It is filed as in vitro ADME. The note with it: for Plasma Stability 240 min mouse/(rat) [% remain.]: CD-1 mouse plasma, 10 μM, 37° C.; for half-life at 10 μM: both sexes, CD-1, mouse, plasma. The essentials:
(§2)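 Compounds at 10 μM were incubated at 37 °C in triplicate in sodium citrate-stabilized plasma (human, or pooled mixed-gender CD-1 mouse). Samples taken at 0–240 min were acetonitrile-quenched and analyzed by HPLC/MS/MS. Remaining peak area as % of t0 gave endpoint stability (%) and half-life (min).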

Series [4] is described as follows: Metabolic stability assay, human liver microsomes. It is filed as in vitro ADME. The note with it: human microsomes, 10 μM, 37° C.; for half-life at 10 μM: both sexes, liver microsomes, 1 mg/ml protein, read-out: Metabolic Stability T ½ [min] hum. An outline of the steps: (§3)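 Pooled human (50 donors, mixed gender) or CD-1 mouse microsomes at 1 mg/mL protein, 10 μM compound, 100 mM potassium phosphate with NADPH-regenerating system, 37 °C in duplicate. Samples at 0, 5, 10, 20, 60 min analysed by HPLC/MS/MS; turnover as % of 0-min value and T½ (min) calculated.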

The nature of series [5]: Metabolic stability assay, CD-1 mouse microsomes. The conditions noted are these: CD-1 mouse microsomes, 10 μM, 37° C.; for half-life at 10 μM: both sexes, 1 mg/ml protein, read-out: Metabolic Stability T ½ [min] mouse/(rat). It is filed as in vitro ADME. The essentials:
as §3

The nature of series [6]: Plasma stability assay, human plasma. It is filed as in vitro ADME. The conditions noted are these: for Plasma Stability 240 min hum [% remain.]: human plasma, 10 μM, 37° C.; for half-life at 10 μM: human, plasma. An outline of the steps:
as §2

[7] abbreviates: strain 11A11, read-out: MIC S. pneumoniae 11A11.
Setting [8] is: strain 82BERG72, read-out: MIC S. pneumoniae 82BERG72.
[9] abbreviates: strain 704CG4B21, read-out: MIC S. pneumoniae 704CG4B21.
The mark [10] stands for this setting: strain 3313A6, read-out: MIC S. pneumoniae 3313A6.
Setting [11] is: strain DSM 20566 (Table 32.8), read-out: MIC S. pneumoniae DSM 20566.

Take `CC(C)(C)OC(=O)N[C@H]1C[C@H]2COc3cccc(c3)-c3ccccc3C(=O)NCC[C@@H](N)C(=O)N2C1` [Ex. 2, tert-butyl N-[(12R,16S,18S)-12-amino-8,13-dioxo-20-oxa-9,14-diazatetracyclo[19.3.1.0^2,7.0^14,18]pentacosa-1(25),2,4,6,21,23-hexaen-16-yl]carbamate]: the MIC in series [1] (strain ATCC 25923, read-out: MIC S. aureus ATCC 25923) was 16 µg/mL (≈ 32.3 µM); in series [1] (strain ATCC 29213, read-out: MIC S. aureus ATCC 29213), 8 to 16 µg/mL (≈ 16.2 to 32.3 µM); in series [1] (strain DSM 11729, read-out: MIC S. aureus DSM 11729), 8 to 16 µg/mL (≈ 16.2 to 32.3 µM); in series [1] (strain S. aureus 39, read-out: MIC S. aureus 39), 4 µg/mL (≈ 8.09 µM); in series [2] (strain DSM 20566 (Table 32.7), read-out: MIC S. pneumoniae DSM 20566) it was 8 µg/mL (≈ 16.2 µM).

For `C[C@H]1COc2cccc(c2)-c2cccc(c2)C(=O)N(C)[C@H](C(=O)NCCO)CCC(=O)N1` [Ex. 81, (9S,14S)-N-(2-hydroxyethyl)-9,15-dimethyl-11,16-dioxo-7-oxa-10,15-diazatricyclo[15.3.1.1^2,6]docosa-1(21),2(22),3,5,17,19-hexaene-14-carboxamide], in series [3], the “Plasma Stability 240 min mouse/(rat) [% remain.]” value is given as 100 % remain and the half-life at 10 μM was over 4 h. Also, in series [4], the half-life at 10 μM was over 60 min and the “Metabolic Stability 60 min hum [% remain.]” value amounted to 100 % remain. Further, in series [5], the “Metabolic Stability 60 min mouse/(rat) [% remain.]” value amounted to 97 % remain and the half-life at 10 μM is over 60 min. In series [6], the “Plasma Stability 240 min hum [% remain.]” value is reported as 88 % remain and the half-life at 10 μM was over 4 h.

Consider `C[C@H]1COc2cccc(c2)-c2cccc(c2)C(=O)N(C)[C@H](C(=O)NCC(=O)O)CCC(=O)N1` [Ex. 83, 2-({[(9S,14S)-9,15-dimethyl-11,16-dioxo-7-oxa-10,15-diazatricyclo[15.3.1.1^2,6]docosa-1(21),2(22),3,5,17,19-hexaen-14-yl]carbonyl}amino)acetic acid], for which, in series [3], the “Plasma Stability 240 min mouse/(rat) [% remain.]” value came out at 93 % remain and the half-life at 10 μM was over 4 h. In addition, in series [4], the half-life at 10 μM was over 60 min and the “Metabolic Stability 60 min hum [% remain.]” value is recorded as 85 % remain. For the same compound, in series [5], the “Metabolic Stability 60 min mouse/(rat) [% remain.]” value was 96 % remain and the half-life at 10 μM was over 60 min. In addition, in series [6], the “Plasma Stability 240 min hum [% remain.]” value was found to be 85 % remain and the half-life at 10 μM is over 4 h.

For `C[C@H]1COc2cccc(c2)-c2cccc(c2)C(=O)N(C)[C@H](C(=O)NCCN(C)C)CCC(=O)N1` [Ex. 84, (9S,14S)-N-[2-(dimethylamino)ethyl]-9,15-dimethyl-11,16-dioxo-7-oxa-10,15-diazatricyclo[15.3.1.1^2,6]docosa-1(21),2(22),3,5,17,19-hexaene-14-carboxamide], in series [3], the “Plasma Stability 240 min mouse/(rat) [% remain.]” value is 56 % remain and the half-life at 10 μM was over 4 h. For the same compound, in series [4], the half-life at 10 μM was over 60 min and the “Metabolic Stability 60 min hum [% remain.]” value was found to be 97 % remain. In addition, in series [5], the “Metabolic Stability 60 min mouse/(rat) [% remain.]” value came out at 71 % remain and the half-life at 10 μM was over 60 min. Also, in series [6], the “Plasma Stability 240 min hum [% remain.]” value was 99 % remain and the half-life at 10 μM is over 4 h.

Consider `C[C@H]1COc2cccc(c2)-c2cccc(c2)C(=O)N(C)[C@H](C(=O)NCCCN2CCCC2)CCC(=O)N1` [Ex. 85, (9S,14S)-9,15-dimethyl-11,16-dioxo-N-[3-(1-pyrrolidinyl)propyl]-7-oxa-10,15-diazatricyclo[15.3.1.1^2,6]docosa-1(21),2(22),3,5,17,19-hexaene-14-carboxamide], for which, in series [3], the “Plasma Stability 240 min mouse/(rat) [% remain.]” value was 88 % remain and the half-life at 10 μM was over 4 h. Further, in series [4], the half-life at 10 μM is over 60 min and the “Metabolic Stability 60 min hum [% remain.]” value came out at 100 % remain. Further, in series [5], the “Metabolic Stability 60 min mouse/(rat) [% remain.]” value was 80 % remain and the half-life at 10 μM was over 60 min. In series [6], the “Plasma Stability 240 min hum [% remain.]” value is given as 100 % remain and the half-life at 10 μM was over 4 h.

Regarding `C[C@H]1COc2cccc(c2)-c2cccc(c2)C(=O)N(C)[C@H](C(=O)N2CCOCC2)CCC(=O)N1` [Ex. 87, (9S,14S)-9,15-dimethyl-14-(morpholinocarbonyl)-7-oxa-10,15-diazatricyclo [15.3.1.1^2,6]docosa-1(21),2(22),3,5,17,19-hexaene-11,16-dione], in series [3], the “Plasma Stability 240 min mouse/(rat) [% remain.]” value is listed as 90 % remain and the half-life at 10 μM was over 4 h. In series [4], the half-life at 10 μM amounted to 27 min and the “Metabolic Stability 60 min hum [% remain.]” value came to 17 % remain. For the same compound, in series [5], the “Metabolic Stability 60 min mouse/(rat) [% remain.]” value is listed as 63 % remain and the half-life at 10 μM is 60 min. For the same compound, in series [6], the “Plasma Stability 240 min hum [% remain.]” value is 100 % remain and the half-life at 10 μM was over 4 h.

Take `C[C@H]1COc2cccc(c2)-c2cccc(c2)C(=O)N(C)[C@H](C(=O)NCc2ccc3ccccc3c2)CCC(=O)N1` [Ex. 89, (9S,14S)-9,15-dimethyl-N-(2-naphthylmethyl)-11,16-dioxo-7-oxa-10,15-diazatricyclo[15.3.1.1^2,6]docosa-1(21),2(22),3,5,17,19-hexaene-14-carboxamide]: in series [3], the “Plasma Stability 240 min mouse/(rat) [% remain.]” value is reported as 76 % remain and the half-life at 10 μM was over 4 h. Moreover, in series [4], the half-life at 10 μM stood at 13 min and the “Metabolic Stability 60 min hum [% remain.]” value is 8 % remain. In addition, in series [5], the “Metabolic Stability 60 min mouse/(rat) [% remain.]” value is on record as 2 % remain and the half-life at 10 μM was 10 min. Further, in series [6], the “Plasma Stability 240 min hum [% remain.]” value is listed as 100 % remain and the half-life at 10 μM is over 4 h.

As to `N[C@H]1C[C@H]2COc3cc(F)cc(c3)-c3csc(c3)C(=O)N[C@H](C(=O)Nc3ccccc3)COCCCCC(=O)N2C1` [Ex. 247, (8S,18S,20S)-18-amino-25-fluoro-6,15-dioxo-N-phenyl-10,22-dioxa-4-thia-7,16-diazatetracyclo[21.3.1.1^2,5.0^16,20]octacosa-1(27),2,5(28),23,25-pentaene-8-carboxamide], the minimal inhibitory concentration (MIC) worked out at 16 µg/mL (≈ 27.6 µM) in series [2] (setting [7]); 8 µg/mL (≈ 13.8 µM) in series [2] (setting [8]); 16 µg/mL (≈ 27.6 µM) in series [2] (setting [9]); 16 µg/mL (≈ 27.6 µM) in series [2] (setting [10]); 16 µg/mL (≈ 27.6 µM) in series [2] (setting [11]).

As for `N[C@H]1C[C@H]2COc3cc(F)cc(c3)-c3csc(c3)C(=O)N[C@H](C(=O)Nc3ccc(Cl)cc3)COCCCCC(=O)N2C1` [Ex. 257, (8S,18S,20S)-18-amino-N-(4-chlorophenyl)-25-fluoro-6,15-dioxo-10,22-dioxa-4-thia-7,16-diazatetracyclo[21.3.1.1^2,5.0^16,20]octacosa-1(27),2,5(28),23,25-pentaene-8-carboxamide], the minimum inhibitory concentration (MIC) in series [2] (setting [7]) turned out to be 8 µg/mL (≈ 13 µM); in series [2] (setting [8]) it was 2 µg/mL (≈ 3.25 µM); in series [2] (setting [9]), 8 µg/mL (≈ 13 µM); in series [2] (setting [10]) it was 8 µg/mL (≈ 13 µM); in series [2] (setting [11]) it was 8 µg/mL (≈ 13 µM).

Turning to `Cc1cccc(NC(=O)[C@@H]2COCCCCC(=O)N3C[C@@H](N)C[C@H]3COc3cc(F)cc(c3)-c3csc(c3)C(=O)N2)c1` [Ex. 259, (8S,18S,20S)-18-amino-25-fluoro-N-(3-methylphenyl)-6,15-dioxo-10,22-dioxa-4-thia-7,16-diazatetracyclo[21.3.1.1^2,5.0^16,20]octacosa-1(27),2,5(28),23,25-pentaene-8-carboxamide], the MIC in series [2] (setting [7]) came out at 16 µg/mL (≈ 26.9 µM); in series [2] (setting [8]), 4 µg/mL (≈ 6.73 µM); in series [2] (setting [9]), 8 µg/mL (≈ 13.5 µM); in series [2] (setting [10]), 8 µg/mL (≈ 13.5 µM); in series [2] (setting [11]), 8 µg/mL (≈ 13.5 µM).
